Data set [1] has as its target T1, Solute carrier family 22 member 21 (Mus musculus) (UniProt Q9WTN6).
T1 sequence (whole entry): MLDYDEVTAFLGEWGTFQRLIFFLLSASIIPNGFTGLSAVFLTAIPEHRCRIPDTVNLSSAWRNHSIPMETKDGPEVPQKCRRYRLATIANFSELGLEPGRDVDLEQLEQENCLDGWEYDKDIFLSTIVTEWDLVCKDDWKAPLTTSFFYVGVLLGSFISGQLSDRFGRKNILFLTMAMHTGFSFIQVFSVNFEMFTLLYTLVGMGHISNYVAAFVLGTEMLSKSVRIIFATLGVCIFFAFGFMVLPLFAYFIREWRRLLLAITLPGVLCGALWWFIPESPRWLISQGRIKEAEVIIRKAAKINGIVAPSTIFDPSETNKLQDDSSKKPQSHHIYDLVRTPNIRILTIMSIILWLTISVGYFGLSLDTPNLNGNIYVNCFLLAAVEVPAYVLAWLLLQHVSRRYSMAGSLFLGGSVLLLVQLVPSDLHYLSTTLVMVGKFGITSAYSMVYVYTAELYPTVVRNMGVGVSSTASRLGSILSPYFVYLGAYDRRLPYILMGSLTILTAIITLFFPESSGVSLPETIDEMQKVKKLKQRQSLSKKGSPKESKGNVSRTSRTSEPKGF
The experiment in a line: TP_TRANSPORTER: inhibition of carnitine uptake by Octanoyl-carnitine at 5uM in Octn3-HEK cells. The class given is functional, cell-based. Further details: scale not given: the % may be the effect or the level left. Conditions: HEK293.

The target in data set [2] is T2, Octn2 (Organic cation/carnitine transporter 2) (Mus musculus, UniProt Q9Z0E8).
T2 sequence (Q9Z0E8 whole entry): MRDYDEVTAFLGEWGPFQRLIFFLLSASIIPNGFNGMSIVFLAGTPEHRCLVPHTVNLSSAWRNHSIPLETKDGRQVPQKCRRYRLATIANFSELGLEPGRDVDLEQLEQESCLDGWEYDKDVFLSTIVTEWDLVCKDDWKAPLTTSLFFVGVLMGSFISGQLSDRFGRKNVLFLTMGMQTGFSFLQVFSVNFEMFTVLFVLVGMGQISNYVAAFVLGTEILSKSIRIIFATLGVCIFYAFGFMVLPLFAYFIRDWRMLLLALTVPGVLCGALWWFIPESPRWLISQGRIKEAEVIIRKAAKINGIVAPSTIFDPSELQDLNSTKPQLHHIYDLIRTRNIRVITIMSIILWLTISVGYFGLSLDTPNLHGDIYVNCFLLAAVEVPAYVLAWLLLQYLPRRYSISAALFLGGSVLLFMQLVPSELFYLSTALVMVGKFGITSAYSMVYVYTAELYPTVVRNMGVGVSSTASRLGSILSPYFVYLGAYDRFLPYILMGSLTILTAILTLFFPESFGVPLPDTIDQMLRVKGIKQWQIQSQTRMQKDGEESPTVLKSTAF
The experiment in a line: TP_TRANSPORTER: inhibition of carnitine uptake by Octanoyl-carnitine at 5uM in Octn2-HEK cells. Conditions: human, probe carnitine, read-out: Activity. Set-up: scale not given: the % may be the effect or the level left. The class given is functional, cell-based, HEK293.

Data set [3] concerns the target T3, Organic cation/carnitine transporter 2 (Mus musculus, UniProt Q9Z0E8).
T3 sequence (Q9Z0E8 whole entry): T2 sequence (Q9Z0E8 whole entry)
The experiment in a line: TP_TRANSPORTER: inhibition of carnitine uptake by Glycine betaine at […] in Octn2-HEK cells. It is filed as functional, cell-based. Further details: scale not given: the % may be the effect or the level left. Conditions: human, hek293.

The target of data set [4] is T1, Solute carrier family 22 member 21 (Mus musculus). As to the kind of experiment: TP_TRANSPORTER: inhibition of carnitine uptake by Glycine betaine at 500uM in Octn3-HEK cells. The class given is functional, cell-based. Further details: scale not given: the % may be the effect or the level left. To be noted: HEK293.
The target is the same in data set [5]. As to the kind of experiment: TP_TRANSPORTER: inhibition of carnitine transport by Butyryl-carnitine at 5uM in Octn3-HEK cells. The class given is functional, cell-based. Set-up: scale not given: the % may be the effect or the level left. To be noted: HEK293.
Data set [6] has as its target T3, Organic cation/carnitine transporter 2. The experiment in a line: TP_TRANSPORTER: inhibition of carnitine uptake by Butyryl-carnitine at 5uM in Octn2-HEK cells. To be noted: human, hek293, 5 µM. It is filed as functional, cell-based. Set-up: scale not given: the % may be the effect or the level left.
Data set [7] concerns the target T4, Solute carrier family 22 member 4 (Mus musculus, UniProt Q9Z306).
T4 sequence (Q9Z306 whole entry): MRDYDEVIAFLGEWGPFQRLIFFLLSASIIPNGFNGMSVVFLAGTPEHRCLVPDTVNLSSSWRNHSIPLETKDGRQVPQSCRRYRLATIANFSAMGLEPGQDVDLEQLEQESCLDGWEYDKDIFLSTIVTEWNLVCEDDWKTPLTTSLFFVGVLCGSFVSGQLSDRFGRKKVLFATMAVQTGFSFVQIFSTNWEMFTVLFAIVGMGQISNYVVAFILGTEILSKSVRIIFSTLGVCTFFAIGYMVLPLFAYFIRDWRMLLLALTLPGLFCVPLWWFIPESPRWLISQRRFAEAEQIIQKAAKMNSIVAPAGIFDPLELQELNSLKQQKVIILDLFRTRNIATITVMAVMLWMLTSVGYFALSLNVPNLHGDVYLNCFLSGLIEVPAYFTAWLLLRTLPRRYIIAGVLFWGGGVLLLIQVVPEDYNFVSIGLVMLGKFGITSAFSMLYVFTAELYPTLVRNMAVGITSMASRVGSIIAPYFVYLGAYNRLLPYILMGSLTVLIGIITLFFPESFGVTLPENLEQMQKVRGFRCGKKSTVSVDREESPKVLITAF
As to the kind of experiment: TP_TRANSPORTER: uptake in Octn1-HEK cells. Conditions: human, hek293. It is filed as functional, cell-based.

For data set [8], the target named is T2, Octn2 (Organic cation/carnitine transporter 2). The experiment in a line: in vitro. Conditions: human, Octn2-HEK cells, probe carnitine.
Data set [9] deals with T1, Solute carrier family 22 member 21 (Mus musculus). As to the kind of experiment: TP_TRANSPORTER: inhibition of carnitine transport by gamma-butyrobetaine at 5uM in Octn3-HEK cells. It is filed as functional, cell-based. To be noted: HEK293. Further details: scale not given: the % may be the effect or the level left.
In data set [10] the target is T2, Octn2 (Organic cation/carnitine transporter 2). As to the kind of experiment: TP_TRANSPORTER: inhibition of carnitine uptake by gamma-butyrobetaine at 5uM in Octn2-HEK cells. It is filed as functional, cell-based, HEK293. Further details: scale not given: the % may be the effect or the level left. Conditions: human, probe carnitine, read-out: Activity.
Data set [11] concerns the target T1, Solute carrier family 22 member 21 (Mus musculus). The experiment in a line: TP_TRANSPORTER: inhibition of carnitine uptake by Acetyl-L-carnitine at 5uM in Octn3-HEK cells. Further details: scale not given: the % may be the effect or the level left. To be noted: HEK293. The class given is functional, cell-based.
In data set [12] the target is T3, Organic cation/carnitine transporter 2. As to the kind of experiment: TP_TRANSPORTER: inhibition of carnitine uptake by Acetyl-L-carnitine at 5uM in Octn2-HEK cells. It is filed as functional, cell-based. Set-up: scale not given: the % may be the effect or the level left. Conditions: human, hek293, 5 µM.
The target in data set [13] is T1, Solute carrier family 22 member 21 (Mus musculus). The experiment in a line: TP_TRANSPORTER: inhibition of carnitine in Octn3-HEK cells. The class given is functional, cell-based. Conditions: HEK293.
Data set [14] addresses T2, Octn2 (Organic cation/carnitine transporter 2). As to the kind of experiment: TP_TRANSPORTER: inhibition of carnitine transport by Palmitoyl-carnitine at 5uM in Octn2-HEK cells. Set-up: scale not given: the % may be the effect or the level left. Conditions: human, probe carnitine, read-out: Activity. The class given is functional, cell-based, HEK293.
Substrate in data set [15]: C[N+](C)(C)CC(O)CC(=O)[O-]
The experiment in a line: TP_TRANSPORTER: uptake in Octn3-HEK cells. The class given is functional, cell-based. Conditions: HEK293.

Substrate in data set [16]: CC[N+](CC)(CC)CC
The experiment in a line: cells, lysate or membranes named.

Substrate in data set [17]: C[N+](C)(C)CC(O)CC(=O)[O-]
The experiment in a line: TP_TRANSPORTER: uptake in Octn2-HEK cells. It is filed as functional, cell-based, HEK293.

For `CCCCCCCC(=O)OC(CC(=O)O)C[N+](C)(C)C` (stereo not drawn) [Octanoyl-carnitine], the Activity in data set [1] was 15%. For the same molecule, in [2], the activity at 5 µM came out at 38%. Consider `C[N+](C)(C)CC(=O)O` [BETAINE], for which the figures for the Activity in [3] and in data set [4] were 56% and 84%, respectively. On to `CCCC(=O)OC(CC(=O)[O-])C[N+](C)(C)C` (stereo not drawn) [Butyryl-carnitine], for which the Activity in data set [5] is 13%; in [6], 66%. In the case of `C[N+](C)(C)CC(O)CC(=O)[O-]` (stereo not drawn) [CARNITINE], the Activity result in [7] was “substrate []”.

`C[N+](C)(C)CCO` [CHOLINE] displayed an activity at 500 µM in [8] of 75%. In the case of `C[N+](C)(C)CCCC(=O)[O-]`, in [9], the Activity was 11%. Besides, the activity at 5 µM in data set [10] turned out to be 77%. Consider `CC(=O)O[C@H](CC(=O)[O-])C[N+](C)(C)C` [ACETYLCARNITINE], for which the Activity in data set [11] is 21%; in data set [12], 67%. `CCCCCCCCCCCCCCCC(=O)OC(CC(=O)[O-])C[N+](C)(C)C` (stereo not drawn) [Palmitoyl-carnitine]: the Activity in data set [13] is 54 µM. Further, the activity at 5 µM in data set [14] came out at 28%.

B1: Solute carrier family 22 member 21 (Mus musculus), Q9WTN6 (protein)
chain: T1 sequence (whole entry)
In the case of B1, the Michaelis-Menten constant (Km) in [15] turned out to be 3 µM.

B2: Solute carrier family 22 member 4 (Mus musculus) (protein)
chain: T4 sequence (Q9Z306 whole entry)
As for B2, the Michaelis constant (Km) in [16] turned out to be 452 µM.

B3: Organic cation/carnitine transporter 2 (Mus musculus) (protein)
chain: T2 sequence (Q9Z0E8 whole entry)
Consider B3, for which the Michaelis-Menten constant (Km) is 22 µM in [17] and 216 µM in data set [16].

For the origin of these results see ChEMBL document CHEMBL2074414, “Molecular and functional characterization of organic cation/carnitine transporter family in mice” (J Biol Chem, 2000).
